This is an account of results in US12075784B2, “Mixtures containing secondary calcium and magnesium phosphonate and their use as fungicide or fertilizer” ([…] (haftungsbeschränkt), priority 2016, dated 2024).

One assay has as its system Rhizopus stolonifer. The experiment in a line: B.4 Protective action against Rhizopus stolonifer on rye bread (Pumpernickel). Particulars: Pumpernickel slices; mixtures 1:50 diluted with water, sorbic acid 0.1% solution; after one week of incubation. The procedure:
B.4 Protective Action Against Rhizopus stolonifer on Rye Bread (“Pumpernickel”)
Sterile slices of Pumpernickel were each sprayed with water (control), a 0.1% sorbic acid solution (a standard preservative) or the mixture of example 1 or of example 8 (1:50 diluted with water). For inoculation with the fungus, small disks of blotting paper were soaked with a spore suspension of Rhizopus stolonifer and placed onto the center of Pumpernickel slices. After one week of incubation, the degree of fungus formation was examined.

For another assay, the system named is powdery mildew. Particulars: dogwood plants; untreated control 30%; from U.S. Pat. Nos. 5,736,164 and 5,800,837; cited from earlier work.
The subject of assay [1] is Plasmopara viticola. In words: B.5.1 Protective and curative treatment against Plasmopara viticola in grapevines (half-leaf). Particulars: example 12 diluted 1:100, examples 13/14 1:200, 0.05% Silwet L-77, ca. 2 μl/cm2, 6 days after first inoculation. The assay is classed as in vivo. The procedure: (§1) Potted grapevines were inoculated with Plasmopara viticola both before foliar treatment with the active agent and after washing the active agent coating off the leaves in order to test the effect of the residual depot of actives. To ensure a good comparability of the results and avoid or at least strongly minimize falsification of the effects, e.g. due to the use of leaves of different physiological age or of different expositions, a half-leaf treatment was carried out: In each case only one half of a leaf was treated, while the other half remained untreated and served as a control and reference for determining efficacy; the two halves being separated by the middle leaf vein. […]
6 days after the first inoculation the plants were placed for 12 h into a humid chamber and then the extent of infection was determined visually and the efficacy W was calculated from the infected leave surface according to the above Abbot's formula.
The expected efficacies for active compound combinations (i.e. secondary magnesium and calcium phosphonate) were determined using Colby's formula (Colby, S. R., “Calculating synergistic and antagonistic responses of herbicide combinations”, Weeds, 15, pp. 20-22, 1967) and compared to the observed efficacies. […]

In assay [2] the test system is Plasmopara viticola. In words: B.5.2 Curative treatment against Plasmopara viticola in grapevines. The assay is classed as in vivo. Particulars: without second inoculation, half-leaf, example 12 diluted 1:100, examples 13/14 1:200, 5 days after inoculation. The procedure: as §1, with “vein. For this purpose a precision sprayer was used for applying the active compounds on the one leaf half, while the half which was to stay untreated was covered with a blotting paper during spraying.” for “vein.”
The experiment was carried out in analogy to B.5.1, however without the second inoculation. 5 days after the inoculation the plants were placed for 12 h into a humid chamber and then the extent of infection was determined visually and the efficacy W was calculated from the infected leave surface according to Abbot's formula. The expected efficacies for active compound combinations (i.e. secondary magnesium and calcium phosphonate) were determined using Colby's formula.

Assay [3] deals with Plasmopara viticola. The experiment in a line: B.5.3 Protective treatment against Plasmopara viticola in grapevines. Particulars: without first inoculation, washed after 24 h, example 12 diluted 1:100, examples 13/14 1:200, 5 days after inoculation. The assay is classed as in vivo. The procedure:
as §1, with “vein. For this purpose a precision sprayer was used for applying the active compounds on the one leaf half, while the half which was to stay untreated was covered with a blotting paper during spraying.” for “vein.”
The experiment was carried out in analogy to B.5.1, however without the first inoculation. 5 days after the inoculation the plants were placed for 12 h into a humid chamber and then the extent of infection was determined visually and the efficacy W was calculated from the infected leave surface according to Abbot's formula. The expected efficacies for active compound combinations (i.e. secondary magnesium and calcium phosphonate) were determined using Colby's formula.

In the next assay the test system is Erysiphe graminis. In words: B.6 Protective treatment against Erysiphe graminis in wheat. The assay is classed as in vivo. Particulars: wheat cultivar Kanzler sprayed to runoff, example 12 diluted 1:100, examples 13/14 1:200, inoculated after 24 h, 18 days after treatment. As for the experimental part:
For a treatment according to the invention, the reaction mixture obtained in example 12 was diluted with water in 1:100 v/v ratio, then 0.05% Silwet® L-77 was added. For comparison, the reaction mixtures obtained in examples 13 and 14, respectively, were diluted with water in 1:200 v/v ratio, then 0.05% Silwet® L-77 was added.
B.6 Protective Treatment Against Erysiphe graminis in Wheat
In a greenhouse, wheat plants of the cultivar Kanzler with 2-3 fully developed leaves were sprayed to runoff-point with either a suspension of the product of example 13 containing secondary magnesium phosphonate, or of the product of example 14 containing secondary calcium phosphonate, or of the product of example 12 containing secondary calcium and magnesium phosphonate; in each case diluted and supplemented with a wetting agent as defined in example B.5.1. After 24 h the plants were inoculated with conidia of Erysiphe graminis. 18 days after the treatment with the active compounds the extent of infection (formation of conidia) was determined visually and the efficacy W was calculated from the infected leave surface according to Abbot's formula. The expected efficacies for active compound combinations (i.e. secondary magnesium and calcium phosphonate) were determined using Colby's formula.

Assay [4] relates to Sphaerotheca fuliginea and Erysiphe cichoracearum. In words: B.7 Protective treatment against Sphaerotheca fuliginea and Erysiphe cichoracearum in cucumber. Particulars: Cucumis sativus half-leaf treatment, example 12 diluted 1:100, examples 13/14 1:200, inoculated after 24 h, 18 days after treatment. The assay is classed as in vivo. As for the experimental part:
as §1, with “vein. For this purpose a precision sprayer was used for applying the active compounds on the one leaf half, while the half which was to stay untreated was covered with a blotting paper during spraying.” for “vein.”
In a greenhouse, leaves of Cucumis sativus plants var. […] 18 days after the treatment with the active compounds the extent of infection (formation of conidia) was determined visually and the efficacy W was calculated from the infected leave surface according to Abbot's formula. The expected efficacies for active compound combinations (i.e. secondary magnesium and calcium phosphonate) were determined using Colby's formula.

For `C/C=C/C=C/C(=O)O` [Sorbic acid, sorbic acid], in the assay with Rhizopus stolonifer, the Infected surface area turned out to be 40%.
Regarding potassium phosphonate, the “leaves infected with powdery mildew” value with powdery mildew is given as 100%.
As for “secondary calcium phosphonate [Example 14]”, the Observed efficacy is listed as 24.6% with Plasmopara viticola [1]; 18.3% with Plasmopara viticola [2]; 35.1% with Plasmopara viticola [3]; 11.7% in the assay on Erysiphe graminis; 20.0% in assay [4].
With “secondary magnesium phosphonate [Example 13]”, the Observed efficacy amounted to 16.5% in the assay with Plasmopara viticola [1]; 47.3% with Plasmopara viticola [2]; 44.5% with Plasmopara viticola [3]; 36.7% in the assay on Erysiphe graminis; 43.3% in assay [4].
